SMILES strings stand for the structures. Values after ≈ are worked out from the molar mass of the structure shown.

We go through ten compounds from ChEMBL document CHEMBL3632605, “Structure-guided discovery of 2-aryl/pyridin-2-yl-1H-indole derivatives as potent and selective hepsin inhibitors” (Bioorg Med Chem Lett, 2015).

Series [1] concerns the target T1, Suppressor of tumorigenicity 14 protein (Homo sapiens, UniProt Q9Y5Y6).
T1 sequence (Q9Y5Y6 whole entry): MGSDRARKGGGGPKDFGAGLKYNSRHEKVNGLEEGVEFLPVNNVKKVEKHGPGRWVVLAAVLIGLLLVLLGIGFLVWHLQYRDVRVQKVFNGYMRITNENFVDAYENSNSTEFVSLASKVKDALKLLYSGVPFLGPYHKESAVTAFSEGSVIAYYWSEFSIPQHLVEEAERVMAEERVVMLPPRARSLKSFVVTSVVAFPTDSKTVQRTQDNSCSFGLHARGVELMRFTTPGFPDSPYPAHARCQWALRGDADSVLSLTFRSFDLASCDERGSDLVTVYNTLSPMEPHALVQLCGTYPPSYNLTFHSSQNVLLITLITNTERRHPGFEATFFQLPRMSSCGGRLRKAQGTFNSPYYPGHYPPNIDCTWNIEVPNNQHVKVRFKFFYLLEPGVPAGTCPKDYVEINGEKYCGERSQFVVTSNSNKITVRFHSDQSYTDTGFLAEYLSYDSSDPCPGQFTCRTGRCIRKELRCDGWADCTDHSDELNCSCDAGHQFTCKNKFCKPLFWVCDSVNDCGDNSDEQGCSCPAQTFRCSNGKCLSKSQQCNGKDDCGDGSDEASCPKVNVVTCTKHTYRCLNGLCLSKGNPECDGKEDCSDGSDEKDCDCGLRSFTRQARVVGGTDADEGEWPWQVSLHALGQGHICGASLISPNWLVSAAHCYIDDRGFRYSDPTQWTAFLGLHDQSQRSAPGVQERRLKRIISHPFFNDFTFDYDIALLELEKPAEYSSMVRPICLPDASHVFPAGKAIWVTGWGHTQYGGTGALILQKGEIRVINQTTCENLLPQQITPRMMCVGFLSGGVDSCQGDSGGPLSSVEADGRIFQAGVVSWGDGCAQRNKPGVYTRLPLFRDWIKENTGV
Nature of the series: Inhibition of human recombinant matriptase by fluorescence based assay using 20 uM Boc-Gln-Ala-Arg-7-amido-4-methyl coumarinhydrobromide as substrate.

The target in series [2] is Trypsin (Homo sapiens, UniProt P07477+P07478+P35030). Description: Inhibition of human trypsin by fluorescence based assay using 25 uM Boc-Gln-Ala-Arg-7-amido-4-methyl coumarinhydrobromide as substrate. The series is classed as protein assay.
Series [3] addresses Serine protease hepsin (Homo sapiens, UniProt P05981). Description: Inhibition of human recombinant hepsin by fluorescence based assay using 65 uM BOC-Gln-Arg-Arg -AMC as substrate.
The target in series [4] is Prothrombin (Homo sapiens, UniProt P00734). Description: Inhibition of human thrombin by fluorescence based assay using 100 uM Boc-Gln-Ala-Arg-7-amido-4-methyl coumarinhydrobromide as substrate.
In series [5] the target is Coagulation factor X (Bos taurus, UniProt P00743). Description: Inhibition of bovine factor 10a by fluorescence based assay using CH3OCO-D-CHA-Gly-Arg-pNA.AcoH as substrate.
Chain of Coagulation factor X (P00743 41-180 limits assumed): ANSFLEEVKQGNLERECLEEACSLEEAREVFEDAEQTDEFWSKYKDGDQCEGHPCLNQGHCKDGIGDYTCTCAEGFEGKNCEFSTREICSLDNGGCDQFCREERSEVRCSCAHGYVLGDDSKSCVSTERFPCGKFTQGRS
Chain of Coagulation factor X (P00743 234-492 limits assumed): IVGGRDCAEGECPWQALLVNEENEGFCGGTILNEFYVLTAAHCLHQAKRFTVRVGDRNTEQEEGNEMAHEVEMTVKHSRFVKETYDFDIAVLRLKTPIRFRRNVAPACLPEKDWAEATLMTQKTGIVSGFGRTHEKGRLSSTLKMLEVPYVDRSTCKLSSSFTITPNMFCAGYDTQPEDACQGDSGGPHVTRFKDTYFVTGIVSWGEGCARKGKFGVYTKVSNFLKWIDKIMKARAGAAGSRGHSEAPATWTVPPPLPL
A short description of series [6]: Stability in mouse liver microsomes assessed as compound remaining at 1 uM after 40 mins by LC-MS/MS analysis. As to conditions: read-out: Stability. Type of series: ADME. (Liver microsomes are vesicles of endoplasmic reticulum, rich in cytochrome P450 enzymes.)
The subject of series [7] is PC-3. Nature of the series: Cytotoxicity against human PC3 cells at 10 uM after 72 hrs by calcein AM assay. Type of series: cell-based. As to conditions: pc-3, 72 h.
Series [8] can be described thus: Antinvasive activity in human LNCaP-C42B4 cells by matrigel assay. Type of series: functional, cell-based.
Series [9] has as its system PC-3. Description: Antimigratory activity in human PC3 cells by transwell-chamber assay. Type of series: functional, cell-based.
For series [10], the target named is Urokinase-type plasminogen activator (Homo sapiens, UniProt P00749). Description: Inhibition of human uPA by fluorescence based assay using L-PyroGlu-Gly-Arg-pNA.HCl as substrate.
Series [11] is described as follows: Cytotoxicity against human LNCaP-C42B4 cells at 10 uM after 72 hrs by calcein AM assay. Type of series: cell-based. As to conditions: lncap-c42b4, 72 h.
A short description of series [12]: Aqueous solubility of compound at pH 7.4 by HPLC-UV/Vis analysis. Type of series: physicochemical. As to conditions: aqueous medium.
Series [13] has as its target Plasminogen (Homo sapiens) (UniProt P00747). Nature of the series: Inhibition of human plasmin at 5 uM by fluorescence based assay using pyroGlu-Phe-Lys-pNA.HCl as substrate.
The nature of series [14]: Stability in mouse liver microsomes assessed as compound remaining at 1 uM after 20 mins by LC-MS/MS analysis. The series is classed as ADME. As to conditions: read-out: Stability.
Series [15] can be described thus: Antimigratory activity in human LNCaP-C42B4 cells by transwell-chamber assay. The series is classed as functional, cell-based.
Series [16] has as its system PC-3. Description: Antinvasive activity in human PC3 cells by matrigel assay. The series is classed as functional, cell-based.

Chain of Serine protease hepsin (P05981 1-162 limits assumed): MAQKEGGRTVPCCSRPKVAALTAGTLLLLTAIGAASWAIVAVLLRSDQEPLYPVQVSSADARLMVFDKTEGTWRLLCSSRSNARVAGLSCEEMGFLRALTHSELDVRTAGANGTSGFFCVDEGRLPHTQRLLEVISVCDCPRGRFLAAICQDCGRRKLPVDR
Chain of Serine protease hepsin (P05981 163-417 limits assumed): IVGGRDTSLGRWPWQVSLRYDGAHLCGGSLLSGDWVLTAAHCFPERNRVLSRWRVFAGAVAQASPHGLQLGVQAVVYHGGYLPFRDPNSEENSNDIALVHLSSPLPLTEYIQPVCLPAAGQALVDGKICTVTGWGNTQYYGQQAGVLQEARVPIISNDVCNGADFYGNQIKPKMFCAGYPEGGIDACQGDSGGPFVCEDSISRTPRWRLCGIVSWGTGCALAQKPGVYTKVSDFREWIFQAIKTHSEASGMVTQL
Chain of Plasminogen (Homo sapiens) (P00747 97-580 limits assumed): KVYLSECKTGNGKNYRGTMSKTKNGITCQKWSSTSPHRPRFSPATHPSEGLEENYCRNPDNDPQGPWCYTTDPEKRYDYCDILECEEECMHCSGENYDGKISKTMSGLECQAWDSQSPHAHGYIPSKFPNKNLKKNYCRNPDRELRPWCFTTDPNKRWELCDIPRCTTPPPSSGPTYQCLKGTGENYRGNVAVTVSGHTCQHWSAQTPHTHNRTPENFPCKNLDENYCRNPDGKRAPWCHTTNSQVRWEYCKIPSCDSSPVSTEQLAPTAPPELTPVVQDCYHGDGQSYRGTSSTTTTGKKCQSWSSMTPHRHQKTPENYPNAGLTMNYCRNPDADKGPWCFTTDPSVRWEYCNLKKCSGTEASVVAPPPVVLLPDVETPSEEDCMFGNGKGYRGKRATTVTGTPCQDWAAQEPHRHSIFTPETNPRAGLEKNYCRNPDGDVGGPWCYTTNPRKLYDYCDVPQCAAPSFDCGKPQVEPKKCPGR
Chain of Plasminogen (Homo sapiens) (P00747 581-810 limits assumed): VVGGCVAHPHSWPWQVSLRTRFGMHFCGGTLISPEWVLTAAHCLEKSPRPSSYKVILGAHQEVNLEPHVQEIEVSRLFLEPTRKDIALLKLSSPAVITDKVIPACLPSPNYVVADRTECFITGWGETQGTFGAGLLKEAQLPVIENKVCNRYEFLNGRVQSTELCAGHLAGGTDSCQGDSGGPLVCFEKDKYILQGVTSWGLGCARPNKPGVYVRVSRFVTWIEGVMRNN

With `CC(C)c1cccc(-c2cc3cc(C(=N)N)ccc3[nH]2)c1O`, the Ki – broadly, a measure of affinity in units of concentration, obtained from inhibition or displacement – is 4.4 µM in [1]; 0.8 µM in series [2]; 4.9 µM in [3]; 1.9 µM in series [4]; 1 µM in series [5].

Take `N=C(N)c1ccc2[nH]c(-c3cccc(C4(O)CCCCC4)n3)cc2c1`: the remaining at 40 min, 1 µM in [6] worked out at 64%. Further, the Activity in [7] was 10%; in [11], 8%. Besides, the EC50 – broadly, the midpoint of the concentration-response curve – is 0.6 µM in series [8], 2.6 µM in series [9], 0.9 µM in series [15] and 3.5 µM in [16]. Moreover, the Ki in [10] is 1.3 µM; in series [1], 2.1 µM; in series [2], 0.4 µM; in series [3], 0.1 µM; in series [4], 2.1 µM; in series [5], 1.4 µM. The solubility – broadly, how much of the substance goes into solution per volume – in series [12] is 148 µM (≈ 49.5 µg/mL). In [13], the inhibition (usually the drop in the measured response relative to a control, in per cent) is 24%. Moreover, the remaining at 20 min, 1 µM in series [14] came out at 86%.

With `N=C(N)c1ccc2[nH]c(-c3cccc(N4CCCCC4)n3)cc2c1`, the remaining at 40 min, 1 µM in series [6] is 60%. Besides, the Activity in series [7] is reported as 10%; in [11] it was 12%. Moreover, the EC50 amounted to 5.2 µM in [9] and 2.6 µM in series [15]. Besides, the results for the Ki in [10], in series [1] and in series [3] were 2.3 µM, 1.5 µM and 0.6 µM, respectively. This compound gave a solubility in series [12] of 135 µM (≈ 43.1 µg/mL). Further, the remaining at 20 min, 1 µM in series [14] is 82%.

Consider `N=C(N)c1ccc2[nH]c(-c3ccccc3O)nc2c1`, for which the Ki in series [2] was found to be 23 µM; in series [3], 40 µM; in series [5] it was 14 µM.

Regarding `N=C(N)c1ccc2[nH]c(-c3ccccc3O)cc2c1`, the figures for the Ki in [1], in series [2] and in [3] were 60 µM, 8 µM and 35 µM, respectively.

For `N=C(N)c1ccc2[nH]c(-c3cccc(C4(O)CCCCC4)[n+]3[O-])cc2c1`, the remaining at 40 min, 1 µM in [6] turned out to be 99%. Besides, the Activity in [7] is reported as 8%; in series [11], 1%. Besides, the EC50 in series [8] was found to be 0.5 µM; in series [9], 1.8 µM; in series [15], 0.6 µM; in series [16], 2.1 µM. For the same compound, the Ki in series [10] came to 7.8 µM; in series [1], 1.1 µM; in series [2], 0.8 µM; in [3], 0.1 µM; in [4], 8.6 µM; in [5], 8.2 µM. Besides, the solubility in series [12] was 200 µM (≈ 70.1 µg/mL). In series [13], this compound gave an inhibition of 11%. Also, in series [14], the remaining at 20 min, 1 µM worked out at 100%.

Turning to `CC(C)c1cc(Cl)cc(-c2cc3cc(C(=N)N)ccc3[nH]2)c1O`, the Ki in [1] and in series [3] was 4.8 µM in each case. This compound also displayed an inhibition in series [13] of 5%.

Consider `N=C(N)c1ccc2[nH]c(-c3cccc(C4(F)CCCCC4)n3)cc2c1`, for which the Ki is 2.7 µM in [10]; 0.8 µM in series [1]; 0.5 µM in [2]; 0.4 µM in series [3]; 3.6 µM in [4]; 0.7 µM in series [5]. The same compound yielded an inhibition in series [13] of 11%.

Consider `N=C(N)c1ccc2[nH]c(-c3cccc(N4CCCCC4)c3O)cc2c1`, for which the remaining at 40 min, 1 µM in series [6] was 22%. The Activity is listed as 22% in [7] and 18% in series [11]. The EC50 in series [9] was determined as 4.9 µM; in series [15] it was 4.2 µM. In addition, the Ki in [1] is 0.5 µM; in [3], 1.4 µM. This compound also gave a solubility in series [12] of 126 µM (≈ 42.1 µg/mL). Besides, the remaining at 20 min, 1 µM in series [14] was 38%.

On to `N=C(N)c1ccc2[nH]ccc2c1`, for which the inhibitory constant (Ki) in series [3] stood at 500 µM.
